Holding throughout (format): physicochemical
Data set [1] can be described thus: Short term stability study at ICH conditions, characterised by XRPD. As for the experimental part: A short term stability study was conducted at two International Conference on Harmonization (ICH) stability conditions, i.e. 25° C./60% relative humidity and 40° C./75% relative humidity. A thin layer of powder was placed in a 20 mL capped glass scintillation vial, and the vials were placed in a sealed desicator that was set to either 25 or 40° C., and to the desired relative humidity over the appropriate saturated salt solution^32. Relative humidities of 60% and 75% were obtained using sodium bromide or sodium chloride, respectively. After initial storage (4 days), the samples were removed and characterized by XRPD. The samples were then returned to appropriate desicator and stored for another 19 days with the caps removed. Final sample characterization was by SEM and XRPD.

Data set [2] is described as follows: BET surface area measurement (nitrogen adsorption at 77 K). Particulars: nitrogen adsorbate, PSA:GF ratio based on mass charged to crystallizer. As for the experimental part:
A Quantachrome Autosorb-IC (Boynton Beach, Fla.) was used to measure surface areas of the samples at 77 K. A known amount of powder (typically 500 mg) was loaded into a Quantachrome powder cell and outgassed for about 1 hr. Nitrogen was used as the adsorbate, and the equations derived by Brunauer, Emmett, and Teller (BET) were used by the software provided with the instrument to calculate the specific surface areas.

Data set [3] in a line: Powder flow properties: bulk density, tapped density, compressibility (modified USP procedure). Particulars: for Percent Compressibility: computed from bulk density and tapped density (equation 3). Here is the method: Bulk densities of selected samples were measured using a modified USP procedure. A mass of sample (M), typically 0.5 g, was passed through a No. 18 test sieve (ASTM USA Standard Test Sieve, Fischer Scientific) into a tared 10 mL graduated cylinder. The powder was carefully leveled and the unsettled apparent volume (Vo) was read to the nearest 0.05 mL. The bulk density (ρb) was then calculated using equation 1: [formula] Each bulk density measurement was performed in triplicate, and the average value was reported. Tapped densities of selected samples were also obtained using a modified USP procedure. After the bulk density had been determined from the procedure described above, the graduate cylinder was mechanically tapped by raising the cylinder and allowing it to drop under its own weight using an apparatus that provided a fixed drop height of 14±2 mm. The nominal tap rate was 60 drops per minute. The cylinder was initially tapped 500 times and the tapped volume (VT) was read to the nearest 0.05 mL. The procedure was then repeated, in increments of 500 taps, until the difference between succeeding measurements was less than 2%. The tapped density (ρt) was then calculated using equation 2: [formula] Each tapped density measurement was performed in triplicate, and the average values for each sample is reported. Powder compressibility was computed from the bulk density and tapped density using equation 3: [formula] Determination of Griseofulvin Content in the Powder Samples
Powder flow properties, as represented by the bulk density, tapped density, and percent compressibility, were determined for selected samples and are shown in Table 2.0, in which GF is griseofluvin and the PSA:GF ratio was based on the original mass charged to the crystallizer. Absent values from the table indicate inadequate sample volume for the measurement technique.

For `COC1=CC(=O)C[C@@H](C)[C@]12Oc1c(Cl)c(OC)cc(OC)c1C2=O` [Bulk GF, griseofulvin], the “XRPD diffraction pattern after storage (phase change)” value in data set [1] (stored for 23 days at 25° C./60% RH) and in data set [1] (stored for 23 days at 40° C./75% RH) was “No new peaks” throughout. Besides, in data set [2], the “BET-Surface Area” value was 2.98 m^2/g. Further, the “Bulk Density” value in data set [3] (average of triplicate) came to 0.2 ± 0.02 g/mL. The “Tapped Density” value in data set [3] (average of triplicate, tapped in increments of 500 taps) came to 0.4 ± 0.02 g/mL. Further, the “Percent Compressibility” value in data set [3] was 49 +/− 3%; in data set [3] (listed as bulk griseofulvin), 49±3%.

These data come from patent publication US20060078573A1, “Methods of modifying crystal habit” (priority 2004, published 2006).
